The text below walks through data of ChEMBL document CHEMBL3612050, “Dual inhibition of Staphylococcus aureus DNA gyrase and topoisomerase IV activity by phenylalanine-derived (Z)-5-arylmethylidene rhodanines” (Bioorg Med Chem, 2015).

The structures appear in SMILES notation. Converted amounts (≈) assume the structure as drawn.

The subject of one experiment is Staphylococcus aureus. As to the kind of experiment: Inhibition of Staphylococcus aureus Topoisomerase 4 assessed as inhibition of supercoiled pBR322 DNA relaxation after 30 mins by agarose gel electrophoresis.
Experiment [1] addresses DNA gyrase (Staphylococcus aureus) (UniProt P0A0K8+P20831).
Description: Inhibition of Staphylococcus aureus DNA gyrase assessed as inhibition of negative supercoiling of pBR322 DNA after 30 mins by agarose gel electrophoresis

Chain of DNA gyrase (Staphylococcus aureus) (P0A0K8 2-644 limits assumed): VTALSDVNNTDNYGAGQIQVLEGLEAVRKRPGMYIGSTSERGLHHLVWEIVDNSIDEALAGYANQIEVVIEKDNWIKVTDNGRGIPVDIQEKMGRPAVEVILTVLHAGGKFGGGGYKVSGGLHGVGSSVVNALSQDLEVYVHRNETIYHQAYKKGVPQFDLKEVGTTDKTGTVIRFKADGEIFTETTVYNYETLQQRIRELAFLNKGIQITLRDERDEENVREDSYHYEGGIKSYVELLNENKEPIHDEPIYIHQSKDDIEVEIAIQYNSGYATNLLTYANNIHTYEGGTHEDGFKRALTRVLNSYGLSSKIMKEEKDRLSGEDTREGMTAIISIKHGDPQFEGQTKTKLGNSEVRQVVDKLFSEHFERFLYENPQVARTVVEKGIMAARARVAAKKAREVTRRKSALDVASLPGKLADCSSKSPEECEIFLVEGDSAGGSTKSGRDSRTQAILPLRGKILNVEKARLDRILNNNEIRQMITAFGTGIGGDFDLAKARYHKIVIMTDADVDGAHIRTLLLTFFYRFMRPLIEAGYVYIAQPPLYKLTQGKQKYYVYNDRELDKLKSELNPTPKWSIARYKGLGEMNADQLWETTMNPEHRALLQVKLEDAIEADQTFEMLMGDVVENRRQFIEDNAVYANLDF
Chain of DNA gyrase (Staphylococcus aureus) (P20831 whole entry partner): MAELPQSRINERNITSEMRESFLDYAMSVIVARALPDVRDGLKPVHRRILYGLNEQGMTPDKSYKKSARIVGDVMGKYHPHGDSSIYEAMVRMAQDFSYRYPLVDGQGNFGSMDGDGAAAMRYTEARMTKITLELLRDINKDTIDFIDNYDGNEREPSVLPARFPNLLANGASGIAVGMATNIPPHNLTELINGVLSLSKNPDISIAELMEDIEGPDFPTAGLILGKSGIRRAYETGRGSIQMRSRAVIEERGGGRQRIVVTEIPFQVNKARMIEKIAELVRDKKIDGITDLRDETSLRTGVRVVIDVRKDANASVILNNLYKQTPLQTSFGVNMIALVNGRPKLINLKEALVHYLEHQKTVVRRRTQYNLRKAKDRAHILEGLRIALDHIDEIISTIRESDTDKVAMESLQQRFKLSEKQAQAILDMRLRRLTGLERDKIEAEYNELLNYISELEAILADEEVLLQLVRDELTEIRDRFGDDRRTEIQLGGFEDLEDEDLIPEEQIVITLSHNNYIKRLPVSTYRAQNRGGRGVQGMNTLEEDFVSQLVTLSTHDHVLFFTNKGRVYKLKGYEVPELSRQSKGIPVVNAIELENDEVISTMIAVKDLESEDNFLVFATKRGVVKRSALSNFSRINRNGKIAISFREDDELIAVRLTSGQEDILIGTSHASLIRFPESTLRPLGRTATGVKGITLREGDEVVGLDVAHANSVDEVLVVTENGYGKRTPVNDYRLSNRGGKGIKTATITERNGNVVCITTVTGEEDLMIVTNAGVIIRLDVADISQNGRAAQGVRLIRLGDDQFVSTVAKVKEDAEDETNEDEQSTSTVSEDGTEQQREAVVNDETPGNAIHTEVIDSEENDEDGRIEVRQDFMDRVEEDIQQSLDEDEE

Turning to `O=C(O)[C@H](Cc1ccccc1)N1C(=O)/C(=C/c2cccc(Cc3ccccc3)c2)SC1=S`, the MIC worked out at 17.5 µM (≈ 8.04 µg/mL) with Staphylococcus aureus and 25 µM (≈ 11.5 µg/mL) in experiment [1].
For `O=C(O)[C@H](Cc1ccccc1)N1C(=O)/C(=C/c2cccc(Cc3ccc(Cl)c(Cl)c3)c2)SC1=S` the same measures were 0.75 µM (≈ 0.396 µg/mL) and 7.5 µM (≈ 3.96 µg/mL).
`O=C(O)[C@H](Cc1ccccc1)N1C(=O)/C(=C/c2cccc(Oc3cccc(Cl)c3)c2)SC1=S`: the values for the MIC (with Staphylococcus aureus; in experiment [1]) were 7.5 µM (≈ 3.72 µg/mL) and 10 µM (≈ 4.96 µg/mL), respectively.
For the compound `O=C(O)[C@H](Cc1ccccc1)N1C(=O)/C(=C/c2cccc(OC/C=C\c3ccccc3)c2)SC1=S`, the MIC with Staphylococcus aureus is 5 µM (≈ 2.51 µg/mL); in experiment [1], 10 µM (≈ 5.02 µg/mL).
For `O=C(O)[C@H](Cc1ccccc1)N1C(=O)/C(=C/c2cccc(Oc3ccccc3)c2)SC1=S` the same measures were 10 µM (≈ 4.62 µg/mL) and 50 µM (≈ 23.1 µg/mL).
`O=C(O)[C@H](Cc1ccccc1)N1C(=O)/C(=C/c2cccc(-c3ccccc3)c2)SC1=S`: the MIC with Staphylococcus aureus came out at 0.5 µM (≈ 0.223 µg/mL); in experiment [1], 17.5 µM (≈ 7.8 µg/mL).
For `O=C(O)[C@H](Cc1ccccc1)N1C(=O)/C(=C/c2cccc(-c3ccc(Cl)c(Cl)c3)c2)SC1=S`, the MIC with Staphylococcus aureus is 10 µM (≈ 5.14 µg/mL); in experiment [1] it was 5 µM (≈ 2.57 µg/mL).
For the compound `O=C(O)[C@@H](Cc1ccccc1)N1C(=O)/C(=C/c2cccc(Oc3ccc(F)cc3)c2)SC1=S`, the MIC is 5 µM (≈ 2.4 µg/mL) in the experiment on Staphylococcus aureus and 17.5 µM (≈ 8.39 µg/mL) in experiment [1].
For `O=C(O)[C@H](Cc1ccccc1)N1C(=O)/C(=C/c2cccc(OCc3ccccc3)c2)SC1=S`, the MIC was determined as 17.5 µM (≈ 8.32 µg/mL) in the experiment with Staphylococcus aureus and 25 µM (≈ 11.9 µg/mL) in experiment [1].
The corresponding values for `O=C(c1ccccc1)c1cccc(/C=C2\SC(=S)N([C@@H](Cc3ccccc3)C(=O)O)C2=O)c1` are 50 µM (≈ 23.7 µg/mL) and 50 µM (≈ 23.7 µg/mL).
Consider `CO[C@@H]1[C@@H](OC(N)=O)[C@@H](O)[C@H](Oc2ccc3c(O)c(NC(=O)c4ccc(O)c(CC=C(C)C)c4)c(=O)oc3c2C)OC1(C)C`, for which, in the experiment on Staphylococcus aureus, the MIC was 2.5 µM (≈ 1.53 µg/mL).
Turning to `O=C(O)[C@H](Cc1ccccc1)N1C(=O)/C(=C/c2cccc(Oc3ccc(Cl)c(Cl)c3)c2)SC1=S`, the MIC in the experiment with Staphylococcus aureus was found to be 2.5 µM (≈ 1.33 µg/mL); in experiment [1], 5 µM (≈ 2.65 µg/mL).
